Reference: paper PMC8296708, “The pan HDAC inhibitor Givinostat improves muscle function and histological parameters in two Duchenne muscular dystrophy murine models expressing different haplotypes of the LTBP4 gene” (Skeletal Muscle, 2021)

Columns and labels:
mdx mice [1] = experiment: Treadmill run to exhaustion test in mdx mice; type: in vivo, mouse (C57BL/10ScSn-Dmd^mdx/J); details: for Distance run: 37.5 mg/kg p.o.
Excerpt: For the efficacy studies, C57BL/10 J (Stock No: 000665) wild type (wt) and C57BL/10ScSn-Dmd^mdx/J (Stock No: 001801) 7–8-week-old male mice, DBA/2J wt (Stock No: 000671), and D2.B10-Dmd^mdx/J (Stock No: 013141) 6–7-week-old male mice were purchased from The Jackson Laboratories (Bar Harbor, Maine, USA). After 5 days of acclimatization in the animal facility, mice were randomized into different treatment groups based on their BW. C57BL/10J wt mice were assigned to the naive wt group (healthy mice that received no treatment, but were subjected to functional tests), whereas mdx mice were assigned to the following groups (9 mice/group; 4–5 mice/cage): naive mdx (mice that received no treatment, but were subjected to functional tests), vehicle (0.5% methylcellulose, p.o.), and Givinostat (0.1, 0.3, 1, 5, 10, 25, and 37.5 mg/kg, p.o.). DBA/2J mice were assigned to the naive wt group (healthy mice that received no treatment, but were subjected to functional tests), whereas D2.B10 mice were assigned to the following groups (12–13 mice/group; 4–5 mice/gage): vehicle (filtered tap water, p.o.), Givinostat (1, 5, 10, and 37.5 mg/kg, p.o.), prednisone 1 mg/kg, and Deflazacort 1 mg/kg (i.p.).
In the efficacy studies, Givinostat powder (ITF2357) was suspended in 0.5% methylcellulose (Sigma-Aldrich) and administered p.o. (by gavage) at the doses of 0.1, 0.3, 1, 5, 10, 25, and 37.5 mg/kg qdx5x15weeks (administration volume per mouse: 10 mL/kg) in mdx mice (see Additional Figure 1A). Vehicle-treated mdx mice received 0.5% methylcellulose suspension. Givinostat suspension was stored at + 4 °C, and it was freshly prepared every 7 days. Probably due to the impairment of their tongue and masticatory muscles, the oral gavage procedure turned out to be difficult to perform, and chronic treatment of D2.B10 mice by this route was considered to bear a high risk of damaging the esophagus. For this reason, Givinostat was administered in the drinking water. Givinostat was dissolved in filtered tap water and was administered in drinking water (throughout 24 h) for 105 days at the dose of 1, 5, 10, and 37.5 mg/kg/day, according to a daily estimate of water consumption of 4 ml/mouse/day. Water consumption was weekly monitored throughout the entire duration of the study weighing the bottle of each cage (maximum 4 mice per cage). Prednisone and Deflazacort powder (Sigma-Aldrich) was dissolved in 2% DMSO (Sigma-Aldrich) and diluted in sterile saline on injection days. Both drugs were administered weekly (for 15 weeks) by i.p. injection at the dose of 1 mg/kg in a volume of 10 mL/kg. Givinostat and steroid treatments started on days 7 and 9 of the experimental plan, respectively (see Additional Figure 1B). All mice were monitored daily and tolerability was evaluated on the basis of BW and clinical signs.
Run to exhaustion performance of mdx and D2.B10 mice was evaluated every 14 or 21 days, respectively, using a treadmill apparatus (Ugo Basile SRL, Italy). The exhaustion protocol consisted in an initially horizontal running at 5 m/min for 5 min after which the speed was increased 1 m/min every minute until exhaustion (the procedure was compliant with the standard operating procedures of TREAT–NMD Neuromuscular Network). The test was concluded when mice remained for more than 10 s on the shocker plate (for both C57BL/10 J and mdx mice) or when D2.B10 mice reached a maximum number of shocks. Due to the excessive stress caused to D2.B10 mice by this functional test, a maximum number of 600 and 150 shocks was set. These experimental conditions were also applied to the DBA/2J wt healthy mice.
After taking baseline readings for behavioral assays (FNmax and distance run by the animals), mice were re-randomized based on these two parameters, also considering the previous randomization performed on their BW.
The grip strength and run to exhaustion tests were performed during the light-cycle phase, in the early hours of the morning (8:00–11:30 am). […]

mdx mice [2] = experiment: Muscle fibrosis by Sirius Red staining in mdx mice; type: in vivo, mouse (C57BL/10ScSn-Dmd^mdx/J)
Excerpt: Tibialis anterior (TA), gastrocnemius (GAS), DIA, and heart were collected from mice maintained under isoflurane anesthesia and sacrificed by cervical dislocation. These muscles were collected from C57BL/10J wt and mdx (5 mice/group) at the end of treatments and from DBA/2J wt and D2.B10 mice (5 mice/group) at two different time points to be examined by a pathologist (for more details see Additional Table 1). Due to the results obtained by the functional tests, muscles from only some treatment groups were analyzed in both DMD models (see Additional Table 1). All the collected muscles were fixed in 10% buffered formalin solution (Bio-optica, Milan, Italy) at + 4 °C for at least 48 h. After fixation, muscular samples were transversely trimmed, caged, and paraffin embedded overnight with an Automated Vacuum Tissue Processor Floor (ETP, Histo-Line Laboratories) and included in paraffin blocks. Serial transverse cross-sections (4 μm thick) were cut with a microtome (Leica RM 2255), collected onto uncoated glass slides, and stained using a standard protocol for hematoxylin and eosin (Mayer hematoxylin & Aqueous G Eosin 1%, Bio-Optica) and Sirius Red staining (Direct Red 80, Sigma-Aldrich). For the image analysis and quantitation, hematoxylin and eosin- and Sirius Red-stained slides were examined with an Olympus BX51 light microscope. From each sample, 1 to 3 random microphotographs at the magnification of × 4 and × 10 (TA, GAS and heart) or × 20 (DIA) were collected using Image-Pro Plus system. The digital images were processed by a pathologist using ImageJ software (U.S. National Institutes of Health, Bethesda, MD, USA). To quantify CSA and centralized nuclei (%) on hematoxylin and eosin-stained sections, one hundred myofibers were manually measured for each muscle/mouse using a tablet pen (Wacom Intruos) and analyzed by the ImageJ software after a linear calibration of 150 μm. The fibrotic area, corresponding to the area stained in red, was compared to the total area of the tissue section, and the results were expressed as percentage fibrosis. The % of fibrosis of muscles in the different treatment groups was expressed by averaging the three values obtained from each muscle.

CCN(CC)Cc1ccc2cc(COC(=O)Nc3ccc(C(=O)NO)cc3)ccc2c1 [Givinostat]
Distance run (mdx mice [1]; day 31): 785 ± 97 m
Distance run (mdx mice [1]; day 44): 693 ± 103 m
Distance run (mdx mice [1]; day 94): 410 ± 40 m
Lowest effective dose on time to exhaustion (mdx mice [1]; day 94): 0.3 mg/kg
Time to exhaustion (mdx mice [1]; highest dose (37.5 mg/kg), day 94, vs vehicle): significantly prolonged the time to exhaustion
Distance run, significance of doses lower than 37.5 mg/kg (mdx mice [1]; lower doses, trend of dose-response): did not reach significance
Reduction of fibrosis in GAS (mdx mice [2]; 10 and 37.5 mg/kg, T16, vs vehicle): about 30%
Effect on fibrosis in TA (mdx mice [2]; T16, doses 1, 10, 37.5 mg/kg analyzed): observed only at the dose of 37.5 mg/kg
Reduction of fibrosis in DIA (mdx mice [2]; all 3 analyzed doses (1, 10, 37.5 mg/kg), T16): about 40%
Effect on fibrosis in heart (mdx mice [2]; all 3 doses analyzed, T16, vs vehicle): the effect was not significant
